Reference: US12486284B2, “Ubiquitin-specific protease inhibitor and preparation method therefor and use thereof” (CHASER THERAPEUTICS, INC., priority 2019, dated 2025)
Read-outs that look alike come from different tables or passages of the source.

Assays:
USP28 = target: T1, USP28 (Homo sapiens, UniProt Q96RU2); assay: USP28 activity measured using ubiquitin-rhodamine 110 method; format: biochemical; details: for IC50: purified USP28 4 nM, ubiquitin-rhodamine 110 125 nM, 30 min preincubation
T1 construct: purchased R&D Systems
T1 sequence (Q96RU2 1-1077): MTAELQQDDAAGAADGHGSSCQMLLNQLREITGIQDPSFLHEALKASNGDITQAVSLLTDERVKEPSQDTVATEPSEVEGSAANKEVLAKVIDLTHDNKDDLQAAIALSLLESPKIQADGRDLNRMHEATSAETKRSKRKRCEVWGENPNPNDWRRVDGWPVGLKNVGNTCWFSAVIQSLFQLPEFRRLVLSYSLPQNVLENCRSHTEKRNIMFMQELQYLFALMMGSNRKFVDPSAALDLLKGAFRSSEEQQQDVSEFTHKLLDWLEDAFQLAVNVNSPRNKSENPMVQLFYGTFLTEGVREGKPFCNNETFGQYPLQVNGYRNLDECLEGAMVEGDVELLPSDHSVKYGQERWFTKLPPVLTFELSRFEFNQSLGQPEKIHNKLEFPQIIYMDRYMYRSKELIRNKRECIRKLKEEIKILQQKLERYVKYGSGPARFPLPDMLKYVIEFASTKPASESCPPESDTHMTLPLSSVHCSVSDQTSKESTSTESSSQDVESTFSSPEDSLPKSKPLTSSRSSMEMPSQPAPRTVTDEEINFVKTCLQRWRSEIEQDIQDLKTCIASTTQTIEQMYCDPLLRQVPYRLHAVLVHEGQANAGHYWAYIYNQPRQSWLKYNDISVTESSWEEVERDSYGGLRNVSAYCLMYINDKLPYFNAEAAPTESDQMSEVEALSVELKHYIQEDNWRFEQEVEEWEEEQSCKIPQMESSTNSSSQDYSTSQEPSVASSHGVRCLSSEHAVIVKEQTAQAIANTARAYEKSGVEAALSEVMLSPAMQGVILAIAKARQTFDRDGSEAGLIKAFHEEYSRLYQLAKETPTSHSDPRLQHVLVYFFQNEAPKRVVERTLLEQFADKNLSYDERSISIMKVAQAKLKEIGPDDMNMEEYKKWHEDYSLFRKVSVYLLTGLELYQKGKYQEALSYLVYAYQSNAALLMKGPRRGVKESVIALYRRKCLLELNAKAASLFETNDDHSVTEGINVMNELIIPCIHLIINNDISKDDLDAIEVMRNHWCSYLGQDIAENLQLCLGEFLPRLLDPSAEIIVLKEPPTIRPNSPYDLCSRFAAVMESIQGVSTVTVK
Summary of the method: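 Purified USP28 (4 nM final) preincubated with compounds 30 min at room temperature in Tris-HCl pH 8.0 buffer with CaCl2, BME, Prionix and Triton X-100 (DMSO ≤0.5%). Ubiquitin-rhodamine 110 added to 125 nM; fluorescence (ex 485/em 535 nm) read immediately, inhibition versus DMSO control used to calculate IC50.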

USP25 = target: T2, USP25 (Homo sapiens, UniProt Q9UHP3); assay: USP25 activity measured using ubiquitin-rhodamine 110 method; format: biochemical; details: for IC50: purified USP25 15 nM, ubiquitin-rhodamine 110 125 nM, 30 min preincubation
T2 construct: purchased R&D Systems
T2 sequence (Q9UHP3 1-1055): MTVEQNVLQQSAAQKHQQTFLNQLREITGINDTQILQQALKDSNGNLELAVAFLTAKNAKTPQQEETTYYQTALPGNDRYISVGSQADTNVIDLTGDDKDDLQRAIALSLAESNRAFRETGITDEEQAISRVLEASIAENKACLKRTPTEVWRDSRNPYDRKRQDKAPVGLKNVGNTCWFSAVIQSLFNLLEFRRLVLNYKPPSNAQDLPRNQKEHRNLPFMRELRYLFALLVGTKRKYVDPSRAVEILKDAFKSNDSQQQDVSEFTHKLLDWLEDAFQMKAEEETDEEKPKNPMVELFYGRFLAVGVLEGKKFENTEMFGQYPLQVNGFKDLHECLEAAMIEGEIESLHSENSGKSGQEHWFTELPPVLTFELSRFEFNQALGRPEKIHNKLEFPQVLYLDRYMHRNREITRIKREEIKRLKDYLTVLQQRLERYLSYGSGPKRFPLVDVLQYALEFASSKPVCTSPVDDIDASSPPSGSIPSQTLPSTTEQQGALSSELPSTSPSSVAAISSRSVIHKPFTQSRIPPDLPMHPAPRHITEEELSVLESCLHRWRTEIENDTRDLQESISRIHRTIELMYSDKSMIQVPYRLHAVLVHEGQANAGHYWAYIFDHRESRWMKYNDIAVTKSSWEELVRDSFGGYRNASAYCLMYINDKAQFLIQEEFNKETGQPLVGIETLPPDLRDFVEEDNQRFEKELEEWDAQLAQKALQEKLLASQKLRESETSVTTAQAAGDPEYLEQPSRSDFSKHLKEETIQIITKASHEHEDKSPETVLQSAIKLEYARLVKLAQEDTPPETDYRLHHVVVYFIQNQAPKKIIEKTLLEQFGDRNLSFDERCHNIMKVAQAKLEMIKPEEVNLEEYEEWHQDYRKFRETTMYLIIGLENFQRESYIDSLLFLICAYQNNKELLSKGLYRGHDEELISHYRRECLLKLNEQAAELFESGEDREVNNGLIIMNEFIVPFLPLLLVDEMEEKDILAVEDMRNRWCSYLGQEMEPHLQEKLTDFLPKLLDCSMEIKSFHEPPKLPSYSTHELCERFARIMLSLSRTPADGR
Summary of the method: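 Compound preincubated 30 min at room temperature with USP25 (15 nM final) in 20 mM Tris-HCl pH 8.0, 2 mM CaCl2, 3 mM BME, 0.01% Prionix, 0.01% Triton X-100, ≤0.5% DMSO. Ubiquitin-rhodamine 110 (125 nM) then added; fluorescence (ex 485/em 535 nm) read immediately. IC50 from % inhibition across concentrations.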

[1] = Inhibitory activity against USP28 (IC50)
[2] = ratio of IC50 of related 3-NH2 compound (F) to IC50 of 3-NHMe compound disclosed herein (E)
[3] = read-out: Inhibitory activity against USP25 (IC50)
[4] = read-out: Inhibitory activity against USP28 (IC50)

SMILES	IC50 (USP28; [1])	IC50(F)/IC50(E) USP28 (USP28; [2])	IC50 (USP25; [3])	IC50(F)/IC50(E) USP25 (USP25; [2])	IC50 (USP25; Inhibitory activity against USP25 (IC50))	IC50 (USP28; [4])
CNc1c(C(=O)N[C@H]2CCc3cc(N4CC5CCC(C4)N5)ccc3C2)sc2nc(C)ccc12 [Compound I-90]	< 100 nM	5.5	100 to 1000 nM	>6	–	–
CNc1c(C(=O)NCCc2ccc(N3C[C@H]4CC[C@@H](C3)N4)cc2)sc2nc(C)cnc12 [Compound I-71]	< 100 nM	–	5000 to 10000 nM	–	–	–
CNc1c(C(=O)NC[C@@H](F)c2ccc(N3C[C@H]4CC[C@@H](C3)N4)cc2)sc2nc(C)ccc12 [Compound I-69]	< 100 nM	–	100 to 1000 nM	–	–	–
CNc1c(C(=O)NCCc2ccc(N3C[C@H]4CC[C@@H](C3)N4)cc2)sc2nc(C)cc(C(F)(F)F)c12 [Compound I-27]	< 100 nM	–	–	–	< 100 nM	–
CNc1c(C(=O)NCCc2c[nH]c3ccccc23)sc2nc(C(F)(F)F)ccc12 [Compound I-54]	–	–	5000 to 10000 nM	–	–	< 100 nM
CNc1c(C(=O)NCCc2ccc(N3C[C@H]4CC[C@@H](C3)N4)cc2)sc2nc(C3CC3)ccc12 [Compound I-15]	< 100 nM	–	1000 to 5000 nM	–	–	–
CNc1c(C(=O)NCCc2ccc(N3C[C@H]4CC[C@@H](C3)N4)cc2)sc2nc(CO)ccc12 [Compound I-22]	–	–	100 to 1000 nM	–	–	100 to 1000 nM
CCCCc1ccc2c(NC)c(C(=O)NCCc3ccc(N4C[C@H]5CC[C@@H](C4)N5)cc3)sc2n1 [Compound I-13]	< 100 nM	–	> 10000 nM	–	–	–
CNc1c(C(=O)NCC(C)(C)c2ccc(N3CC4CCC(C3)N4)cc2F)sc2nc(C)ccc12 [Compound I-92]	–	–	> 10000 nM	–	–	1000 to 5000 nM
CNc1c(C(=O)NC[C@@H](C)c2ccc(N3C[C@H]4CC[C@@H](C3)N4)cc2)sc2nc(C)ccc12 [Compound I-68]	–	–	100 to 1000 nM	–	–	100 to 1000 nM
CCc1cc(CCNC(=O)c2sc3nc(C)ccc3c2NC)ccc1N1[C@@H]2CC[C@H]1CNC2 [Compound I-34]	< 100 nM	–	100 to 1000 nM	–	–	–
CCCc1ccc2c(NC)c(C(=O)NCCc3ccc(N4C[C@H]5CC[C@@H](C4)N5)cc3)sc2n1 [Compound I-11]	< 100 nM	–	> 10000 nM	–	–	–
CNc1c(C(=O)N[C@@H]2Cc3ccc(N4CC5CCC(C4)N5)cc3C2)sc2nc(C)ccc12 [Compound I-83]	–	–	5000 to 10000 nM	–	–	100 to 1000 nM
